The NIST ThermoML archive (doi:10.1016/j.fluid.2017.12.010)
Numbers after ± are expanded uncertainties.

Experiment: xn = mol fraction of the nth substance listed
Settings: Liquid, Vibrating tube method

CCCCCCCCCCCC [dodecane] + CCCCCCCCCC
Settings	mass density [kg/m3]
303.31 K, 1000 kPa, x2 = 0.2297	739 ± 3
303.32 K, 5000 kPa, x2 = 0.2297	742 ± 3
303.32 K, 10000 kPa, x2 = 0.2297	745 ± 3
303.33 K, 20000 kPa, x2 = 0.2297	752 ± 3
303.33 K, 30000 kPa, x2 = 0.2297	759 ± 3
303.34 K, 40000 kPa, x2 = 0.2297	765 ± 3
303.35 K, 100 kPa, x2 = 0.2297	738 ± 3
303.35 K, 60000 kPa, x2 = 0.2297	775 ± 3
303.35 K, 80000 kPa, x2 = 0.2297	785 ± 3
303.35 K, 100000 kPa, x2 = 0.2297	794 ± 3
303.39 K, 100 kPa, x2 = 0.4436	734 ± 3
303.39 K, 1000 kPa, x2 = 0.4436	735 ± 3
303.39 K, 5000 kPa, x2 = 0.4436	738 ± 3
303.39 K, 10000 kPa, x2 = 0.4436	742 ± 3
303.41 K, 20000 kPa, x2 = 0.4436	749 ± 3
303.41 K, 40000 kPa, x2 = 0.4436	761 ± 3
303.41 K, 80000 kPa, x2 = 0.4436	782 ± 3
303.41 K, 99990 kPa, x2 = 0.4436	791 ± 3
303.42 K, 30000 kPa, x2 = 0.4436	755 ± 3
303.42 K, 60000 kPa, x2 = 0.4436	772 ± 3
303.43 K, 100 kPa, x2 = 0.6433	730 ± 3
303.43 K, 1000 kPa, x2 = 0.6433	731 ± 3
303.43 K, 20000 kPa, x2 = 0.6433	745 ± 3
303.43 K, 30000 kPa, x2 = 0.6433	752 ± 3
303.43 K, 40000 kPa, x2 = 0.6433	758 ± 3
303.43 K, 60000 kPa, x2 = 0.6433	769 ± 3
303.43 K, 80000 kPa, x2 = 0.6433	779 ± 3
303.43 K, 100000 kPa, x2 = 0.6433	788 ± 3
303.44 K, 5000 kPa, x2 = 0.6433	734 ± 3
303.44 K, 10000 kPa, x2 = 0.6433	738 ± 3
303.45 K, 100 kPa, x2 = 0.7841	727 ± 3
303.45 K, 10000 kPa, x2 = 0.7841	735 ± 3
303.45 K, 20000 kPa, x2 = 0.7841	742 ± 3
303.45 K, 30000 kPa, x2 = 0.7841	749 ± 3
303.45 K, 40000 kPa, x2 = 0.7841	755 ± 3
303.45 K, 60000 kPa, x2 = 0.7841	766 ± 3
303.45 K, 80000 kPa, x2 = 0.7841	776 ± 3
303.45 K, 100000 kPa, x2 = 0.7841	785 ± 3
303.46 K, 1000 kPa, x2 = 0.7841	728 ± 3
303.47 K, 5000 kPa, x2 = 0.7841	731 ± 3
312.89 K, 100 kPa, x2 = 0	736 ± 3
312.89 K, 1000 kPa, x2 = 0	737 ± 3
312.9 K, 5000 kPa, x2 = 0	740 ± 3
312.9 K, 10000 kPa, x2 = 0	744 ± 3
312.9 K, 20000 kPa, x2 = 0	751 ± 3
312.9 K, 30000 kPa, x2 = 0	757 ± 3
312.9 K, 40000 kPa, x2 = 0	763 ± 3
312.9 K, 50000 kPa, x2 = 0	769 ± 3
312.9 K, 60000 kPa, x2 = 0	774 ± 3
312.9 K, 70000 kPa, x2 = 0	780 ± 3
312.9 K, 80000 kPa, x2 = 0	784 ± 3
312.9 K, 90000 kPa, x2 = 0	789 ± 3
312.9 K, 100000 kPa, x2 = 0	793 ± 3
313.23 K, 100 kPa, x2 = 0.2297	732 ± 3
313.24 K, 1000 kPa, x2 = 0.2297	732 ± 3
313.24 K, 5000 kPa, x2 = 0.2297	736 ± 3
313.24 K, 10000 kPa, x2 = 0.2297	740 ± 3
313.24 K, 20000 kPa, x2 = 0.2297	747 ± 3
313.24 K, 30000 kPa, x2 = 0.2297	753 ± 3
313.24 K, 40000 kPa, x2 = 0.2297	760 ± 3
313.24 K, 60000 kPa, x2 = 0.2297	771 ± 3
313.25 K, 80000 kPa, x2 = 0.2297	781 ± 3
313.25 K, 100000 kPa, x2 = 0.2297	790 ± 3
313.3 K, 30000 kPa, x2 = 0.4436	750 ± 3
313.3 K, 40000 kPa, x2 = 0.4436	756 ± 3
313.3 K, 100000 kPa, x2 = 0.4436	787 ± 3
313.31 K, 100 kPa, x2 = 0.4436	728 ± 3
313.31 K, 1000 kPa, x2 = 0.4436	729 ± 3
313.31 K, 10000 kPa, x2 = 0.4436	736 ± 3
313.31 K, 20000 kPa, x2 = 0.4436	743 ± 3
313.31 K, 60000 kPa, x2 = 0.4436	767 ± 3
313.31 K, 80000 kPa, x2 = 0.4436	778 ± 3
313.32 K, 5000 kPa, x2 = 0.4436	732 ± 3
313.36 K, 100 kPa, x2 = 0.6433	724 ± 3
313.36 K, 1000 kPa, x2 = 0.6433	725 ± 3
313.36 K, 10000 kPa, x2 = 0.6433	732 ± 3
313.36 K, 20000 kPa, x2 = 0.6433	740 ± 3
313.37 K, 100 kPa, x2 = 0.7841	721 ± 3
313.37 K, 1000 kPa, x2 = 0.7841	722 ± 3
313.37 K, 5000 kPa, x2 = 0.6433	728 ± 3
313.37 K, 5000 kPa, x2 = 0.7841	725 ± 3
313.37 K, 10000 kPa, x2 = 0.7841	729 ± 3
313.37 K, 30000 kPa, x2 = 0.6433	746 ± 3
313.37 K, 40000 kPa, x2 = 0.6433	753 ± 3
313.37 K, 40000 kPa, x2 = 0.7841	750 ± 3
313.37 K, 60000 kPa, x2 = 0.7841	762 ± 3
313.37 K, 80000 kPa, x2 = 0.7841	772 ± 3
313.38 K, 20000 kPa, x2 = 0.7841	737 ± 3
313.38 K, 30000 kPa, x2 = 0.7841	744 ± 3
313.38 K, 60000 kPa, x2 = 0.6433	764 ± 3
313.38 K, 80000 kPa, x2 = 0.6433	774 ± 3
313.38 K, 100000 kPa, x2 = 0.6433	784 ± 3
313.38 K, 100000 kPa, x2 = 0.7841	781 ± 3
322.83 K, 100 kPa, x2 = 0	727 ± 3
322.83 K, 1000 kPa, x2 = 0	728 ± 3
322.83 K, 5000 kPa, x2 = 0	732 ± 3
322.83 K, 10000 kPa, x2 = 0	736 ± 3
322.83 K, 20000 kPa, x2 = 0	743 ± 3
322.83 K, 30000 kPa, x2 = 0	750 ± 3
322.83 K, 40000 kPa, x2 = 0	756 ± 3
322.83 K, 50000 kPa, x2 = 0	762 ± 3
322.83 K, 60000 kPa, x2 = 0	768 ± 3
322.83 K, 70000 kPa, x2 = 0	773 ± 3
322.83 K, 80000 kPa, x2 = 0	778 ± 3
322.83 K, 90000 kPa, x2 = 0	783 ± 3
322.83 K, 100000 kPa, x2 = 0	787 ± 3
323.08 K, 100 kPa, x2 = 0.2297	723 ± 3
323.08 K, 1000 kPa, x2 = 0.2297	724 ± 3
323.08 K, 5000 kPa, x2 = 0.2297	727 ± 3
323.08 K, 10000 kPa, x2 = 0.2297	731 ± 3
323.08 K, 20000 kPa, x2 = 0.2297	739 ± 3
323.08 K, 30000 kPa, x2 = 0.2297	746 ± 3
323.08 K, 40000 kPa, x2 = 0.2297	752 ± 3
323.09 K, 100 kPa, x2 = 0.4436	719 ± 3
323.09 K, 60000 kPa, x2 = 0.2297	764 ± 3
323.09 K, 80000 kPa, x2 = 0.2297	774 ± 3
323.09 K, 100010 kPa, x2 = 0.2297	784 ± 3
323.1 K, 1000 kPa, x2 = 0.4436	720 ± 3
323.1 K, 5000 kPa, x2 = 0.4436	724 ± 3
